# Reference: patent publication US7074789B2, “Kinase inhibitors” (Amgen Inc., priority 1999, dated 2006)
# Key:
# Assay type in all cases: biochemical
# Ret-1 = biological target: T1, Ret-1 (Homo sapiens, UniProt P07949); assay: Kinase inhibition assay (33P transfer), Ret; details: Table 6, Ret-1 kinase inhibition class
# T1 construct: Kinases are expressed as either kinase domains or full length constructs; made in house
# FGFR1 = biological target: T2, FGFR1 (Homo sapiens, UniProt P11362); assay: Kinase inhibition assay (33P transfer), FGFR1; details: read-out: FGFR1-1
# T2 construct: Kinases are expressed as either kinase domains or full length constructs; made in house
# Fyn = biological target: T3, Fyn (Homo sapiens, UniProt P06241); assay: Kinase inhibition assay (33P transfer), Fyn; details: read-out: Fyn-1
# T3 construct: Kinases are expressed as either kinase domains or full length constructs; made in house
# Summary of the method: (§1)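 Steps: coat wells with poly(Glu,Tyr) 4:1 or poly(Arg,Ser) 3:1; add purified kinase, [33P]ATP and inhibitor; incubate; wash with 0.5% phosphoric acid; add liquid scintillant; count. IC50 corresponds to half-maximal reduction of bound 33P.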
# Flt-1 = biological target: T4, Flt-1 (Homo sapiens, UniProt P17948); assay: Kinase inhibition assay (33P transfer), Flt-1
# T4 construct: Kinases are expressed as either kinase domains or full length constructs; made in house
# Summary of the method: as §1
# Hck-1 = biological target: T5, Hck-1 (Homo sapiens, UniProt P08631); assay: Kinase inhibition assay (33P transfer), Hck; details: Table 6, Hck-1 kinase inhibition class
# T5 construct: Kinases are expressed as either kinase domains or full length constructs; made in house
# Src = biological target: T6, Src (Homo sapiens, UniProt P12931); assay: Kinase inhibition assay (33P transfer), Src; details: Table 6, Src-1 kinase inhibition class
# T6 construct: Kinases are expressed as either kinase domains or full length constructs; made in house
# Summary of the method: as §1
# Lyn = biological target: T7, Lyn (Homo sapiens, UniProt P07948); assay: Kinase inhibition assay (33P transfer), Lyn; details: Table 6, Lyn-1 kinase inhibition class
# T7 construct: Kinases are expressed as either kinase domains or full length constructs; made in house
# Summary of the method: as §1
# ErbB4 = biological target: T8, ErbB4 (Homo sapiens, UniProt Q15303); assay: Kinase inhibition assay (33P transfer), ErbB4; details: read-out: ErbB4-1
# T8 construct: Kinases are expressed as either kinase domains or full length constructs; made in house
# EPHB4 = biological target: T9, EPHB4 (Homo sapiens, UniProt P54760); assay: Kinase inhibition assay (33P transfer), EPHB4; details: read-out: EPHB4-1
# T9 construct: Kinases are expressed as either kinase domains or full length constructs; made in house
# T9 sequence (P54760 16-987): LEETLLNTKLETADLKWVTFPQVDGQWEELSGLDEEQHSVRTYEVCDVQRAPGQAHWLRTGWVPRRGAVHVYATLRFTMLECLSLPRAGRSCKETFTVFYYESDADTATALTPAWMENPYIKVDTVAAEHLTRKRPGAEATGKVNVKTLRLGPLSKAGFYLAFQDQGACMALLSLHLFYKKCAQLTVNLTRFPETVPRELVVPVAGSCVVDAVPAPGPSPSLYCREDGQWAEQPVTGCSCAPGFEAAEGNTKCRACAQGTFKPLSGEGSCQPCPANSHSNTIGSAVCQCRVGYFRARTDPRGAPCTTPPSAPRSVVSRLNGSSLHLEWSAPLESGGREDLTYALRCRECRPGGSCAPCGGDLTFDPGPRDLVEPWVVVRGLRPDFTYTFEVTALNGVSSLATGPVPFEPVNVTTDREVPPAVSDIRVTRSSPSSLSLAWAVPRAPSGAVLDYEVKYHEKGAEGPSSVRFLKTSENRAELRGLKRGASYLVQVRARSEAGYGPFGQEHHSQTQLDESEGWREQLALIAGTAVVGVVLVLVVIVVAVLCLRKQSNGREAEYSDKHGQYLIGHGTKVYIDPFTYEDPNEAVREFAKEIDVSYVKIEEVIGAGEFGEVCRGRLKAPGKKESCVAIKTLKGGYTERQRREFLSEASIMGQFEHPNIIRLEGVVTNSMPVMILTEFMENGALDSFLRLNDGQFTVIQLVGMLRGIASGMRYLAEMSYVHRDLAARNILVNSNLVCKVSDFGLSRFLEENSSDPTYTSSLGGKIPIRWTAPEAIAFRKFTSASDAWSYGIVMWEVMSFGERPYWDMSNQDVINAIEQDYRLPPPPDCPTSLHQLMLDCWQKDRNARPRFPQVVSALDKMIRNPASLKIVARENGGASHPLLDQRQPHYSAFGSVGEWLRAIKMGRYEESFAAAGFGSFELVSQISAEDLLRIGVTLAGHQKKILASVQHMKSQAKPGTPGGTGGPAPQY
# T5 sequence (P08631 whole entry, the tested form may be a part): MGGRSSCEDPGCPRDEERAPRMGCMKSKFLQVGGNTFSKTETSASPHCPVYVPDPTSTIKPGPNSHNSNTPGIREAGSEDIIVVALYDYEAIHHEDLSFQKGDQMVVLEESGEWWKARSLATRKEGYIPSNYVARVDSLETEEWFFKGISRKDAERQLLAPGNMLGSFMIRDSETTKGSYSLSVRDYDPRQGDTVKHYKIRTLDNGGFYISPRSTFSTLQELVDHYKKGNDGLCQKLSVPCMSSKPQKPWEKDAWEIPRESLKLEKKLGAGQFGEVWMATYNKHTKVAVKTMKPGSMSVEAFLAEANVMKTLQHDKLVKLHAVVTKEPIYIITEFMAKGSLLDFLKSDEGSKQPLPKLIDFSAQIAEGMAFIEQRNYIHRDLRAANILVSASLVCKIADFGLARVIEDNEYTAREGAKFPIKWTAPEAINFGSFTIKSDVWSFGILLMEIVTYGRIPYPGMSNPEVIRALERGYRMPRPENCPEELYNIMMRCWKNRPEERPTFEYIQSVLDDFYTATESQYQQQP
# T3 sequence (P06241 whole entry, species assumed, the tested form may be a part): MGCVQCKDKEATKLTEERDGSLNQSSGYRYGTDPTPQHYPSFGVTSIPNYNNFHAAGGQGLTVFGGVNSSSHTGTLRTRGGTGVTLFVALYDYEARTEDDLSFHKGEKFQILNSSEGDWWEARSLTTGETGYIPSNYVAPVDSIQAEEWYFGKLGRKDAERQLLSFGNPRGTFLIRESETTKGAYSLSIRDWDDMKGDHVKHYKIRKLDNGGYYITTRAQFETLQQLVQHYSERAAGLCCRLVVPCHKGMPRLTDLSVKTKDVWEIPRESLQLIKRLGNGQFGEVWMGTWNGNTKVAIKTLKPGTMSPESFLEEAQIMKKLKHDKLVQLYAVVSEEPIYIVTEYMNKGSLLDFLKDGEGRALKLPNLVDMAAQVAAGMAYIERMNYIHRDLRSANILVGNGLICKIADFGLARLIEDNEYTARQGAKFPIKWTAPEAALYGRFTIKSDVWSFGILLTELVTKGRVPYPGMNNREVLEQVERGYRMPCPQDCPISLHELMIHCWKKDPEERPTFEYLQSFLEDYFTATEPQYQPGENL
# T4 sequence (P17948 27-1338, species assumed): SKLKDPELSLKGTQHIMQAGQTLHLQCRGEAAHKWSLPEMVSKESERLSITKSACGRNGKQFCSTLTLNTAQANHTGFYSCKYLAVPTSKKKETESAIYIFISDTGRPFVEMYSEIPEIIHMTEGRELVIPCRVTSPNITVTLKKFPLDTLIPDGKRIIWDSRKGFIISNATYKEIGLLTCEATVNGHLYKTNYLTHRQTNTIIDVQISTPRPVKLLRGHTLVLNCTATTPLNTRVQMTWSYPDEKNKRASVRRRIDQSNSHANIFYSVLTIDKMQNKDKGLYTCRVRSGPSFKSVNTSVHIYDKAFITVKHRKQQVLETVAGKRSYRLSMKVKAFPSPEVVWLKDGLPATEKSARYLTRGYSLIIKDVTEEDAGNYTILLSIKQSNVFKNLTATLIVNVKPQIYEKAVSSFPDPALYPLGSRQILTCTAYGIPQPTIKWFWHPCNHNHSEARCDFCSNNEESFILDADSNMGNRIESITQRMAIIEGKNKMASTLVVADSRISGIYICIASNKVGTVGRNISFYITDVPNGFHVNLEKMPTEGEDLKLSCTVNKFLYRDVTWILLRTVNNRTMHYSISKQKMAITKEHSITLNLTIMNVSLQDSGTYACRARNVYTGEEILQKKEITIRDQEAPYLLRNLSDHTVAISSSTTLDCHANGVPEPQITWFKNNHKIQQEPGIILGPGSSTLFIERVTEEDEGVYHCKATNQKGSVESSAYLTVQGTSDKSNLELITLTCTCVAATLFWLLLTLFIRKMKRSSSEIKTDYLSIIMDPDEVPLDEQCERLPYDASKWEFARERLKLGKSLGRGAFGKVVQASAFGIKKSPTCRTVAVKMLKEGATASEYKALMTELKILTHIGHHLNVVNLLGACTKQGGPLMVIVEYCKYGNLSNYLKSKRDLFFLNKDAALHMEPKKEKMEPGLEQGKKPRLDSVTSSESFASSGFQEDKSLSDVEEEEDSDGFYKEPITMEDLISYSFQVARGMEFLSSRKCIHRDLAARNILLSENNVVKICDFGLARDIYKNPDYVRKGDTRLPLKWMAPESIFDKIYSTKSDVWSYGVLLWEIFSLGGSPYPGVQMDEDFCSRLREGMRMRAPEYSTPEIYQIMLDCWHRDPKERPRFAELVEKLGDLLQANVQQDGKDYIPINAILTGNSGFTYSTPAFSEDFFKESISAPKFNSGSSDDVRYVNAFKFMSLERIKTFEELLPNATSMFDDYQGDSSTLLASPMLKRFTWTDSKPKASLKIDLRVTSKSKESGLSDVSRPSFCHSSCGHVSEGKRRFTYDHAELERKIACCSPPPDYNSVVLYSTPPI
# T6 sequence (P12931 whole entry, species assumed, the tested form may be a part): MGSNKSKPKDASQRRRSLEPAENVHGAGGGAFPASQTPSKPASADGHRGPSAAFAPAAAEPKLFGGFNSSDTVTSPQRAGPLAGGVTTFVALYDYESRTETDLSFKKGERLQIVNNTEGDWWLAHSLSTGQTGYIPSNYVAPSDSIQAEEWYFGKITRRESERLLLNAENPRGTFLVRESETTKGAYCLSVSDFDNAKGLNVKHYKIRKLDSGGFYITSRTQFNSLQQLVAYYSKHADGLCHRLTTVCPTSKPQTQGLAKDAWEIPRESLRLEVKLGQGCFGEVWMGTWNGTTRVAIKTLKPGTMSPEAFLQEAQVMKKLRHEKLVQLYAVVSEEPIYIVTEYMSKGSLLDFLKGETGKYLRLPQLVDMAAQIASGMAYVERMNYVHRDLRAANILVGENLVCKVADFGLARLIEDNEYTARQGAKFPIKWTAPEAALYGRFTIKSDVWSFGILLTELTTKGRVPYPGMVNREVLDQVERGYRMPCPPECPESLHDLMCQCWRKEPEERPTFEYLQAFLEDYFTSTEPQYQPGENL
# T2 sequence (P11362 22-822, species assumed): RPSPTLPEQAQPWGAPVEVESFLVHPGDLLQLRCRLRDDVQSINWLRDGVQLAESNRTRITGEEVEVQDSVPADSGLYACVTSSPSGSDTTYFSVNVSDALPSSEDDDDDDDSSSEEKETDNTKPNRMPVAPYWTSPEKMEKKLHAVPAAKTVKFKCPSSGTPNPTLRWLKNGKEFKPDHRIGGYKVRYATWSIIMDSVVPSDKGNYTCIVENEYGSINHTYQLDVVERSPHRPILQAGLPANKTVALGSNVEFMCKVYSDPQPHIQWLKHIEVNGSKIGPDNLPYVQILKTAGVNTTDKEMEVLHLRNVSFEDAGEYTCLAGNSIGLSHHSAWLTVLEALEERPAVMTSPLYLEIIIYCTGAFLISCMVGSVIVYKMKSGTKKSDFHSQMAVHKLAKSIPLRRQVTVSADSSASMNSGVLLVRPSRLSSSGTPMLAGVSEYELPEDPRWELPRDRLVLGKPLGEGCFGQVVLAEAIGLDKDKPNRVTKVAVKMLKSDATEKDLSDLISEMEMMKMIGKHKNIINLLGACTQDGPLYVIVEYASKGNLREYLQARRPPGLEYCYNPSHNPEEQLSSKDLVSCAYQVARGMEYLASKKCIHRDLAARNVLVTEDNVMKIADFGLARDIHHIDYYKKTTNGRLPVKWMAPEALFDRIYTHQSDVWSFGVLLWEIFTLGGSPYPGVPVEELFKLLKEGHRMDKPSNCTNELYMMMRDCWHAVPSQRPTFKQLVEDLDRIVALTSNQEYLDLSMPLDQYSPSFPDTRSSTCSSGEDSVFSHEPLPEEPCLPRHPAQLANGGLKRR
# T8 sequence (Q15303 26-1308, species assumed): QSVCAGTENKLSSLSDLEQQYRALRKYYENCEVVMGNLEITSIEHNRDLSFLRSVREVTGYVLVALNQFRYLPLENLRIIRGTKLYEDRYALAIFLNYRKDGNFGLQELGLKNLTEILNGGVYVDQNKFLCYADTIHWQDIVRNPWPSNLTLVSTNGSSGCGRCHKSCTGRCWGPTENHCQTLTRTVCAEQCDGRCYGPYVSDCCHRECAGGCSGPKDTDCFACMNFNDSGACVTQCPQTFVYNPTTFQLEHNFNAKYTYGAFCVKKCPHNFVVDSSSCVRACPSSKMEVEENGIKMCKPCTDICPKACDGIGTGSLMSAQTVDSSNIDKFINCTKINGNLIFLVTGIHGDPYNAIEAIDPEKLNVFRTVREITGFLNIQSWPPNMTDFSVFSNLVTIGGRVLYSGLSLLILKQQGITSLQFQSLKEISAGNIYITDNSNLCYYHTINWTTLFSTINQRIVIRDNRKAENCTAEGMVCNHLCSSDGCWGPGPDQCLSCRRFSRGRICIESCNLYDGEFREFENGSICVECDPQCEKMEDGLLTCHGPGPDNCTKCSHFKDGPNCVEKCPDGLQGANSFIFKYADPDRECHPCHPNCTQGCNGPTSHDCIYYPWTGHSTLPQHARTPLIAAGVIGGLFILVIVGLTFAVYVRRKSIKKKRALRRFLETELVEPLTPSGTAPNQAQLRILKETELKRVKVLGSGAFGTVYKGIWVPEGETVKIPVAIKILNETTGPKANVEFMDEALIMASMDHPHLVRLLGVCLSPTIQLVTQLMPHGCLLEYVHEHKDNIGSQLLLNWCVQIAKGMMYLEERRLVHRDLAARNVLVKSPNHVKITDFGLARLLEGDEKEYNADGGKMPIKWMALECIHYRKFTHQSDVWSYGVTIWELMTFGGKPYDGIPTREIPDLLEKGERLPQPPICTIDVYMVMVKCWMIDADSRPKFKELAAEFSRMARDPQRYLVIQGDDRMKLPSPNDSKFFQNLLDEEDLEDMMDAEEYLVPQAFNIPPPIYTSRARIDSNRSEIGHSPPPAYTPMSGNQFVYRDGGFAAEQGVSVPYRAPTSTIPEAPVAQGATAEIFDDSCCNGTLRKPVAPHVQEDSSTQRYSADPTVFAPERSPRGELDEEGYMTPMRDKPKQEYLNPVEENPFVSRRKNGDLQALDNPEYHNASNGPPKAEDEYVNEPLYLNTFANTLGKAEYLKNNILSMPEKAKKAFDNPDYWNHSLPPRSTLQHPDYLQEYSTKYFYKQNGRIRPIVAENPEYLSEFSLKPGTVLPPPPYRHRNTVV
SMILES,IC50 (Ret-1),IC50 (FGFR1),IC50 (Fyn),IC50 (Flt-1),IC50 (Hck-1),IC50 (Src),IC50 (Lyn),IC50 (ErbB4),IC50 (EPHB4)
COc1cc(Nc2ncnc(-n3c(N)nc4cc([N+](=O)[O-])ccc43)n2)cc(OC)c1OC [Compound 294],0.912 to 5.47 µM,> 10.3 µM,> 10.3 µM,> 10.3 µM,> 10.3 µM,> 10.3 µM,> 10.3 µM,> 10.3 µM,0.912 to 5.47 µM
COc1cc(Nc2ncnc(-n3c(N)nc4cc(Cl)ccc43)n2)cc(OC)c1OC [Compound 296],< 0.935 µM,0.935 to 5.61 µM,5.61 to 8.18 µM,0.935 to 5.61 µM,> 10.5 µM,0.935 to 5.61 µM,0.935 to 5.61 µM,8.18 to 10.5 µM,< 0.935 µM
